Source: US20230331690A1, “THC DERIVATIVES, ORAL DOSAGE FORMS COMPRISING SAME, USES THEREOF FOR TREATING DISEASES AND DISORDERS AND SYNTHESIS THEREOF” (BAR-ILAN UNIVERSITY, priority 2020, published 2023)
Where “and” joins values, the source holds several entries; their conditions need not be identical. Equal entries are not always repeated.

Legend:
mice = assay: Hot plate assay, withdrawal reflex latency (WRL); assay type: in vivo; details: for Hot plate Time: per animal
hind paw of mice = assay: Electronic Von-Frey mechanical sensitivity (withdrawal thresholds) after Paclitaxel-induced neuropathic pain; assay type: in vivo; details: for Withdrawal test, test 1 / Withdrawal test, test 4 / Withdrawal test, test 5 / Withdrawal test, test 2 / Withdrawal test, test 3 / Withdrawal test, test 6: per animal; for Withdrawal test, All group average: 8 mice; for Withdrawal test, Average: average per animal; for Withdrawal test, Change from b.l.: group average vs baseline; for Withdrawal test, test 6: additional test
Protocol: Mechanical sensitivity was evaluated by measuring the changes in tactile sensitivity in the hind paw of mice, using an Electronic Von-Frey apparatus (EVF). Withdrawal thresholds were measured, using the EVF apparatus, first at baseline (time=0) and then following drug, in a few periods after administration, by applying an accurate force on specific areas of the skin and measuring the needed force for the mouse to lift its paw.
Paclitaxel was utilized for the stimulation of a chemotherapy-induced neuropathic pain. Paclitaxel is anti-cancer chemotherapy drug classified as a “plant alkaloid” and an “antimicrotubule agent”.
Mice were divided into three groups of 8 mice each, as follows: • (a) Group no. 1—Morphine as positive control; • (b) Group no. […] 3—synthetic THC derivative 9-Desmethyl THC.
A portion of Paclitaxel was administered to each mouse by i.p. injection, on days 1, 3, 5 and 7 from the beginning of the experiment. At day 8, withdrawal thresholds were measured first at baseline (time=0), thereafter each mouse received a single portion of a drug substance, at 5 mg/Kg body weight concentration, by oral gavage and measurements took place.
The first checking point was 1 hour after administration of each drug. For every mouse, its threshold for the pain perception in which it removes its hind paw after the stabbing of the Von-Frey hair has been checked. Needed force (in gram force units) was measured each time and was recorded for every checking. This test was repeated 5 times for each mouse consecutively.
This procedure was repeated for all the three groups. The next checking point was 3 hours after administration, where the last withdrawal thresholds measurements were performed on the next morning, on day 9, which was 24 hours after administration.
Morphine was utilized as a positive control where group no. 1 mice received morphine (dissolved in a saline solution (0.9%) and injected subcutaneously) as an analgesic agent, prior to the mechanical sensitivity tests.
The tests described in this example are complicated and depend on numerous factors. Accordingly, results above 10.0 gram force (marked with an asterisk) were not included in the evaluation of the experimental data. In cases of exceptional results, an additional test was performed mouse (test 6) in order to assure the exceptional result.

[1] = t = 1 h after 5 mg/Kg, * values excluded
[2] = t = 3 h after 5 mg/Kg, * values excluded
[3] = t = 24 h after 5 mg/Kg, * values excluded

Structure (SMILES): CN1CC[C@]23c4c5ccc(O)c4O[C@H]2[C@@H](O)C=C[C@H]3[C@H]1C5 [Morphine, reference compound]
- Hot plate Avg. 6 mice (mice; 5 mg/kg oral, t = 0.5 h): 14.43 s
- Hot plate Time (mice; 5 mg/kg oral, t = 0.5 h, cut-off 30 s): 15.7 s and 13.1 s and 10.5 s and 23.8 s and 12.4 s and 11.1 s
- Hot plate Avg. 6 mice (mice; 5 mg/kg oral, t = 3 h): 14.05 s
- Hot plate Time (mice; 5 mg/kg oral, t = 3 h): 16.8 s and 11.4 s and 20.5 s and 12.6 s and 14.5 s and 8.5 s
- Hot plate Avg. 6 mice (mice; 5 mg/kg oral, t = 6 h): 14.25 s
- Hot plate Time (mice; 5 mg/kg oral, t = 6 h): 12.7 s and 8.0 s and 26.6 s and 19.7 s and 12.0 s and 6.5 s
- Hot plate Avg. 3 mice (mice; 5 mg/kg oral, t = 24 h): 5.8 s
- Hot plate Time (mice; 5 mg/kg oral, t = 24 h): 2.4 s and 9.0 s and 5.9 s
- average increase in WRL compared to baseline (t=0) (mice; 5 mg/kg, 0.5 h): 26.9%
- change in average WRL compared to t=0 at baseline (mice; 5 mg/kg, 3 h): +23%
- change in average WRL compared to baseline (mice; 5 mg/kg, 6 h): +25%
- average WRL less than baseline (mice; 5 mg/kg, 24 h, 3 animals): about 50%
- Withdrawal test, test 1 (hind paw of mice; t = 1 h after 5 mg/Kg single dose (oral gavage; morphine s.c.), * values >10.0 excluded from evaluation): 4.4 gram force (2×) and 8.5 gram force and 8.4 gram force and 5.2 gram force and 5.9 gram force and 4.7 gram force and 5.6 gram force
- Withdrawal test, All group average (hind paw of mice; t = 1 h after 5 mg/Kg): 6.21 gram force
- Withdrawal test, Average (hind paw of mice; t = 1 h after 5 mg/Kg): 5.68 gram force (2×) and 7.80 gram force and 7.17 gram force and 6.62 gram force and 6.02 gram force and 5.26 gram force and 5.45 gram force
- Withdrawal test, Change from b.l. (hind paw of mice; t = 1 h after 5 mg/Kg): +6.7%
- Withdrawal test, Change from b.l. (hind paw of mice; t = 1 h after 5 mg/Kg, listed as morphine): 6.7%
- Withdrawal test, test 4 (hind paw of mice; t = 1 h after 5 mg/Kg): 9.1 gram force and 8.3 gram force and 7.4 gram force and 6.5 gram force and 5.0 gram force and 4.2 gram force and 5.3 gram force and 4.4 gram force
- Withdrawal test, test 5 (hind paw of mice; t = 1 h after 5 mg/Kg): 4.2 gram force and 9.8 gram force and 5.7 gram force and 9.0 gram force and 4.9 gram force and 9.2 gram force and 7.5 gram force and 5.8 gram force
- Withdrawal test, test 2 (hind paw of mice; [1]): 6.5 gram force and 4.3 gram force and *10.3 gram force and 7.9 gram force and 8.3 gram force and 7.6 gram force and 4.2 gram force and 6.0 gram force
- Withdrawal test, test 3 (hind paw of mice; [1]): 4.2 gram force and 8.1 gram force and *10.5 gram force and 4.5 gram force and 4.3 gram force and 4.4 gram force and 4.9 gram force and *10.2 gram force
- Withdrawal test, All group average (hind paw of mice; t = 3 h after 5 mg/Kg): 5.79 gram force
- Withdrawal test, Average (hind paw of mice; t = 3 h after 5 mg/Kg): 6.28 gram force and 6.00 gram force and 4.68 gram force and 5.50 gram force and 5.66 gram force and 5.12 gram force and 6.34 gram force and 5.34 gram force
- Withdrawal test, Change from b.l. (hind paw of mice; t = 3 h after 5 mg/Kg): −0.5%
- Withdrawal test, Change from b.l. (hind paw of mice; t = 3 h after 5 mg/Kg, listed as morphine): −0.5%
- Withdrawal test, test 2 (hind paw of mice; t = 3 h after 5 mg/Kg): 5.5 gram force (2×) and 6.8 gram force and 4.3 gram force and 6.1 gram force and 5.9 gram force and 4.4 gram force and 5.3 gram force
- Withdrawal test, test 4 (hind paw of mice; t = 3 h after 5 mg/Kg): 5.5 gram force and 4.9 gram force and 4.6 gram force and 4.3 gram force and 7.0 gram force and 5.3 gram force and 6.4 gram force and 5.8 gram force
- Withdrawal test, test 5 (hind paw of mice; t = 3 h after 5 mg/Kg): 6.9 gram force and 8.6 gram force and 5.5 gram force and 5.6 gram force and 4.6 gram force and 5.2 gram force and 6.1 gram force and 5.7 gram force
- Withdrawal test, test 6 (hind paw of mice; t = 3 h after 5 mg/Kg): 7.0 gram force and 4.5 gram force
- Withdrawal test, test 1 (hind paw of mice; [2]): 7.2 gram force and 5.3 gram force (2×) and *11.6 gram force and 6.6 gram force and 5.6 gram force and 6.4 gram force and 5.4 gram force
- Withdrawal test, test 3 (hind paw of mice; [2]): 6.3 gram force and 4.4 gram force and 4.3 gram force (2×) and 4.9 gram force and 5.2 gram force and 8.4 gram force and 4.5 gram force
- Withdrawal test, All group average (hind paw of mice; t = 24 h after 5 mg/Kg): 5.09 gram force
- Withdrawal test, Average (hind paw of mice; t = 24 h after 5 mg/Kg): 5.23 gram force and 4.80 gram force and 5.44 gram force and 5.28 gram force and 4.32 gram force and 6.08 gram force and 4.54 gram force and 5.00 gram force
- Withdrawal test, Change from b.l. (hind paw of mice; t = 24 h after 5 mg/Kg): −12.5%
- Withdrawal test, Change from b.l. (hind paw of mice; t = 24 h after 5 mg/Kg, listed as morphine): −12.5%
- Withdrawal test, test 1 (hind paw of mice; t = 24 h after 5 mg/Kg): 5.2 gram force (2×) and 4.0 gram force (2×) and 4.3 gram force and 4.1 gram force and 6.9 gram force and 5.4 gram force
- Withdrawal test, test 2 (hind paw of mice; t = 24 h after 5 mg/Kg): 4.7 gram force (3×) and 5.2 gram force and 5.3 gram force and 5.8 gram force and 6.0 gram force and 4.0 gram force
- Withdrawal test, test 3 (hind paw of mice; t = 24 h after 5 mg/Kg): 4.5 gram force and 6.5 gram force and 4.1 gram force (2×) and 4.0 gram force and 4.8 gram force and 5.1 gram force and 4.2 gram force
- Withdrawal test, test 6 (hind paw of mice; t = 24 h after 5 mg/Kg): 6.5 gram force and 4.3 gram force
- Withdrawal test, test 4 (hind paw of mice; [3]): *12.9 gram force and 4.0 gram force and 4.1 gram force and 6.7 gram force and 4.7 gram force (2×) and 4.6 gram force and 7.4 gram force
- Withdrawal test, test 5 (hind paw of mice; [3]): 6.5 gram force and 4.3 gram force (2×) and 9.4 gram force and 4.6 gram force and 4.1 gram force and 8.0 gram force and 4.0 gram force
